Experiment: recombinant barcode read abundance after kanamycin selection (control-corrected) (log10(CPM+1)); higher = more efficient recombination; sequences stand for … in AGTGCAGAGAAAATCGGCCAGTTTTCTCTGCCTGCAGTCCGCATGCCGT…AGATTTATGCAGCGGACTGCCTTTCTCCCAAAGTGATAAACCGGACAGTATCATGGACCGGTTTTCCCGGTAATCCGTATTTGCAAGGTTGGTTTCACT; site = the 11-nt target
Outline: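 Targets and IS621 bridge RNA target-binding loops were paired in oligos, each with a promoter, a barcode and the J23119-driven first 104 bridge RNA bases. A vector carrying the remaining 73 bp and a T7-inducible recombinase received these by Gibson cloning, and the pool was co-electroporated into E. coli with a donor plasmid. Duplicate plates contained chloramphenicol/ampicillin LB agar (control) or chloramphenicol/ampicillin/kanamycin with 0.1 mM IPTG. Recombination efficiency comes from averaged, control-corrected counts per million of recombinant-junction barcodes, reported as log10(CPM+1).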
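Also: IS621 recombinase and bridge RNA in Escherichia coli cells.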

Sequence | recombinant barcode read abundance (log10)
TGGCCTGCTTGGGTTCTAACCTGTTGCCT (site TGGCGAGCTAG) | 0.176
TGGCTAGCTTGGGTTCTAACCTGTTGCAC (site CATTCGCCTAC) | 0.0401
TGGCTAGCTTGGGTTCTAACCTGTTGCAC (site TGGCTAGCTGT) | 1.77
TGGGACACTTGGGTTCTAACCTGTTGCCG (site AGGGACTCTCG) | 0.403
TGGGACACTTGGGTTCTAACCTGTTGCCG (site TGGGACACTCG) | 2.48
TGGGTCACTTGGGTTCTAACCTGTTGCTA (site GTTTAATCTAT) | 0.0621
TGGGTCACTTGGGTTCTAACCTGTTGCTA (site TGGGTCACTTA) | 2.07
TGGGTCCCTTGGGTTCTAACCTGTTGCGA (site AAATGTACTAG) | 0.252
TGGGTCCCTTGGGTTCTAACCTGTTGCGA (site TGGGTCCCTTC) | 3
TGGTATCCTTGGGTTCTAACCTGTTGCCT (site TGGTATACTAG) | 0.15
TGGTATCCTTGGGTTCTAACCTGTTGCCT (site TGGTATCCTAG) | 0.954
TGGTATCCTTGGGTTCTAACCTGTTGCCT (site TGGTATGCTAG) | 0.396
TGGTATCCTTGGGTTCTAACCTGTTGCCT (site TGGTATTCTAG) | 0.358
TGGTCGGCTTGGGTTCTAACCTGTTGCAC (site TAGTCAGCTGT) | 0.0913
TGGTCGGCTTGGGTTCTAACCTGTTGCAC (site TGGTCGGCTGT) | 0.385
TGGTGCGCTTGGGTTCTAACCTGTTGCCT (site TGGTACGCTAG) | 0.33
TGGTGCGCTTGGGTTCTAACCTGTTGCCT (site TGGTCCGCTAG) | 0.324
TGGTGCGCTTGGGTTCTAACCTGTTGCCT (site TGGTGCGCTAG) | 1.21
TGGTGCGCTTGGGTTCTAACCTGTTGCCT (site TGGTTCGCTAG) | 0.0427
TGGTGTCCTTGGGTTCTAACCTGTTGCCA (site TCGAGTCCTTG) | 0.0738
TGGTGTCCTTGGGTTCTAACCTGTTGCCA (site TGGTGTCCTTG) | 0.473
TGGTGTCCTTGGGTTCTAACCTGTTGCCT (site TGGAGTCCTAG) | 0.32

Sequence | recombinant barcode read abundance (log10)
TGGTGTCCTTGGGTTCTAACCTGTTGCCT (site TGGCGTCCTAG) | 0.279
TGGTGTCCTTGGGTTCTAACCTGTTGCCT (site TGGGGTCCTAG) | 0.158
TGGTGTCCTTGGGTTCTAACCTGTTGCCT (site TGGTGTCCTAG) | 1.58
TGGTTACCTTGGGTTCTAACCTGTTGCGG (site CACACGACTAA) | 0.0374
TGGTTACCTTGGGTTCTAACCTGTTGCGG (site TGGTTACCTCC) | 1.49
TGGTTGTCTTGGGTTCTAACCTGTTGCCT (site TGGCTGTCTAG) | 0.522
TGGTTGTCTTGGGTTCTAACCTGTTGCCT (site TGGTTGTCTAG) | 1.09
TGTACGACTTGGGTTCTAACCTGTTGCCT (site TGTACGACTAG) | 0.146
TGTACGACTTGGGTTCTAACCTGTTGCCT (site TGTACGTCTAA) | 0.0793
TGTACGACTTGGGTTCTAACCTGTTGCGG (site GAGTGTTCTAA) | 0.0347
TGTACGACTTGGGTTCTAACCTGTTGCGG (site TGTACGACTCC) | 0.7
TGTAGTACTTGGGTTCTAACCTGTTGCCT (site TGGAGTACTAA) | 0.0714
TGTAGTACTTGGGTTCTAACCTGTTGCCT (site TGTAGTACTAG) | 0.229
TGTATGACTTGGGTTCTAACCTGTTGCCT (site AGTATGACTAG) | 0.65
TGTATGACTTGGGTTCTAACCTGTTGCCT (site CGTATGACTAG) | 0.0259
TGTATGACTTGGGTTCTAACCTGTTGCCT (site GGTATGACTAG) | 0.263
TGTATGACTTGGGTTCTAACCTGTTGCCT (site TGTATGACTAG) | 0.46
TGTATGTCTTGGGTTCTAACCTGTTGCCT (site AGTATGTCTAG) | 0.0212
TGTATGTCTTGGGTTCTAACCTGTTGCCT (site CGTATGTCTAG) | 0.529
TGTATGTCTTGGGTTCTAACCTGTTGCCT (site GGTATGTCTAG) | 0.402
TGTATGTCTTGGGTTCTAACCTGTTGCCT (site TGTATGTCTAG) | 0.0364
TGTCAACCTTGGGTTCTAACCTGTTGCGT (site TGTCAAACTAC) | 0.0902

Sequence | recombinant barcode read abundance (log10)
TGTCAACCTTGGGTTCTAACCTGTTGCGT (site TGTCAACCTAC) | 1.02
TGTCAAGCTTGGGTTCTAACCTGTTGCCT (site TGTCAAACTAG) | 0.574
TGTCAAGCTTGGGTTCTAACCTGTTGCCT (site TGTCAACCTAG) | 0.045
TGTCAAGCTTGGGTTCTAACCTGTTGCCT (site TGTCAAGCTAG) | 0.46
TGTCAAGCTTGGGTTCTAACCTGTTGCCT (site TGTCAATCTAG) | 0.295
TGTCCACCTTGGGTTCTAACCTGTTGCCT (site AGTCCACCTAG) | 0.0595
TGTCCACCTTGGGTTCTAACCTGTTGCCT (site CGTCCACCTAG) | 0.267
TGTCCACCTTGGGTTCTAACCTGTTGCCT (site GGTCCACCTAG) | 0.165
TGTCCACCTTGGGTTCTAACCTGTTGCCT (site TGTCCACCTAG) | 0.623
TGTCGAGCTTGGGTTCTAACCTGTTGCGG (site TGTCGAGCTCC) | 0.977
TGTCGAGCTTGGGTTCTAACCTGTTGCGG (site TTCCGAGCTCC) | 0.00866
TGTCGGACTTGGGTTCTAACCTGTTGCAC (site TGTCGGACTAT) | 0.741
TGTCGGACTTGGGTTCTAACCTGTTGCAC (site TGTCGGACTCT) | 0.214
TGTCGGACTTGGGTTCTAACCTGTTGCAC (site TGTCGGACTGT) | 0.38
TGTCGGACTTGGGTTCTAACCTGTTGCAC (site TGTCGGACTTT) | 0.0148
TGTCGGCCTTGGGTTCTAACCTGTTGCTT (site CTATTTACTCC) | 0.107
TGTCGGCCTTGGGTTCTAACCTGTTGCTT (site TGTCGGCCTAA) | 0
TGTCTCCCTTGGGTTCTAACCTGTTGCTT (site TGTCTACCTTA) | 0.0416
TGTCTCCCTTGGGTTCTAACCTGTTGCTT (site TGTCTCCCTAA) | 0.777
TGTGACACTTGGGTTCTAACCTGTTGCAA (site AACAGGCCTAG) | 0.121
TGTGACACTTGGGTTCTAACCTGTTGCAA (site TGTGACACTTT) | 1.54
TGTGAGTCTTGGGTTCTAACCTGTTGCCT (site TGTGAGTCTAA) | 0.0418

Sequence | recombinant barcode read abundance (log10)
TGTGAGTCTTGGGTTCTAACCTGTTGCCT (site TGTGAGTCTAC) | 0.73
TGTGAGTCTTGGGTTCTAACCTGTTGCCT (site TGTGAGTCTAG) | 1.1
TGTGAGTCTTGGGTTCTAACCTGTTGCCT (site TGTGAGTCTAT) | 0.0543
TGTGAGTCTTGGGTTCTAACCTGTTGCTT (site TGTGAGTCTAA) | 0.549
TGTGAGTCTTGGGTTCTAACCTGTTGCTT (site TGTGAGTCTAC) | 0.0217
TGTGAGTCTTGGGTTCTAACCTGTTGCTT (site TGTGAGTCTAG) | 0.193
TGTGAGTCTTGGGTTCTAACCTGTTGCTT (site TGTGAGTCTAT) | 0.799
TGTGGGTCTTGGGTTCTAACCTGTTGCCT (site TATGGGTCTAG) | 0.0229
TGTGGGTCTTGGGTTCTAACCTGTTGCCT (site TGTGGGTCTAG) | 0.393
TGTGTCCCTTGGGTTCTAACCTGTTGCCG (site TGTCTCCCTCG) | 0.0681
TGTGTCCCTTGGGTTCTAACCTGTTGCCG (site TGTGTCCCTCG) | 1.1
TGTTAGCCTTGGGTTCTAACCTGTTGCCA (site GGTTAGCCTAG) | 0.0168
TGTTAGCCTTGGGTTCTAACCTGTTGCCA (site TGTTAGCCTTG) | 0.0869
TGTTAGCCTTGGGTTCTAACCTGTTGCCT (site GGCTAGCCTAG) | 0.0606
TGTTAGCCTTGGGTTCTAACCTGTTGCCT (site TGTTAGCCTAG) | 0.0878
TGTTGCACTTGGGTTCTAACCTGTTGCCT (site TGTTGCACTAG) | 0.0616
TGTTGCACTTGGGTTCTAACCTGTTGCCT (site TGTTGGCCTAG) | 0.0587
TTAACTACTTGGGTTCTAACCTGTTGCTC (site TTAACTACTAA) | 0.0118
TTAACTACTTGGGTTCTAACCTGTTGCTC (site TTAACTACTCA) | 0.126
TTAACTACTTGGGTTCTAACCTGTTGCTC (site TTAACTACTGA) | 0.195

From the supplement of paper PMC11208160
